# Target: p300 HAT domain (residues 1287-1666) (Homo sapiens (Human), UniProt Q09472)
# Assay: p300 HAT SPA assay (scintillation proximity assay, acetylation of biotinylated H3(1-21) peptide)
# Type: biochemical
# Settings: average of at least 2 replicate titrations
# Protocol: In a typical experiment the p300 HAT inhibitory activity of the compounds described herein was determined in accordance with the following experimental method.
# The expressed protein was purified by Ni2+ affinity, followed by anion exchange chromatography. Appropriate fractions were pooled and buffer exchanged into 20 mM Hepes pH 7.5, 150 mM NaCl, and 1 mM TCEP.
# 35 μL of the reaction volume was transferred to a 384-well streptavidin FlashPlate (PerkinElmer) using a Bravo liquid handler (Velocity 11) and incubated for 1.5 hr at RT. […] Data were analyzed in Genedata to determine inhibitor IC50 values.
# Chain of p300 HAT domain (residues 1287-1666) (Q09472 1287-1666): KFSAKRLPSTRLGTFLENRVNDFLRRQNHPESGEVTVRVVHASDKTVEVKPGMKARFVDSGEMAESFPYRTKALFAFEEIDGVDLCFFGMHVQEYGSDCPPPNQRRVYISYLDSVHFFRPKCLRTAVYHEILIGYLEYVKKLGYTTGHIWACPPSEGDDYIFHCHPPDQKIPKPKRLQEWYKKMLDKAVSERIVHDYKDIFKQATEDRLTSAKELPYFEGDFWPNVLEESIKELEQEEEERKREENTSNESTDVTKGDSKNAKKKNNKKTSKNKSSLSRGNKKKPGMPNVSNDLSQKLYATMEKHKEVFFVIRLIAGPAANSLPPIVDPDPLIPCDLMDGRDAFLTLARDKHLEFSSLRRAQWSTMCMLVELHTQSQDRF
row,SMILES,IC50 [nM]
1,"COC1CN(c2ccc(NC(=O)C(NCC(C)c3ccc(C#N)cc3)c3ccccc3)nc2)C1 (single isomer, unassigned) [32 Isomer 4]",> 2000
2,"N#Cc1ccc(CCNC(C(=O)Nc2ccc(N3CCCC3)nc2)c2ccccc2)cc1 (single isomer, unassigned) [35 Isomer 1]",> 5000
3,"N#Cc1ccc(CCNC(C(=O)Nc2ccc(N3CCCC3)nc2)c2ccccc2)cc1 (single isomer, unassigned) [35 Isomer 2]",> 5000
4,"CN1CCN(c2ccc(NC(=O)C(NCCc3ccc(C#N)cc3)c3ccccc3)cn2)CC1 (single isomer, unassigned) [36 Isomer 2]",> 5000
5,"N#Cc1ccc(CCNC(C(=O)Nc2ccc(N3CCC(F)(F)CC3)cn2)c2ccccc2)cc1 (single isomer, unassigned) [38 Isomer 1]",206
6,"N#Cc1ccc(CCNC(C(=O)Nc2ccc(N3CCC(F)(F)CC3)cn2)c2ccccc2)cc1 (single isomer, unassigned) [38 Isomer 2]",> 2000
7,"Cc1nc(NC(=O)C(NCC(C)c2ccc(C#N)cc2)c2ccccc2)ccc1-c1cnn(C)c1 (single isomer, unassigned) [39 Isomer 2]",> 2000
8,"N#Cc1ccc(CCNC(C(=O)Nc2ccc(N3CCN(CC(F)(F)F)CC3)cn2)c2ccccc2)cc1 (single isomer, unassigned) [40 Isomer 2]",> 5000
9,"Cc1cc(C#N)ccc1CCNC(C(=O)Nc1ccc(-c2cnn(C)c2)cn1)c1ccccc1 (single isomer, unassigned) [41 Isomer 2]",1790
10,"N#Cc1ccc(CCNC(C(=O)Nc2ccc(C3CC3)cn2)c2ccccc2)cc1 (single isomer, unassigned) [42 Isomer 2]",3000
11,"Cn1cc(-c2cnc(NC(=O)C(NCCc3ccc(C#N)cc3)c3ccccc3)c(Cl)c2)cn1 (single isomer, unassigned) [43 Isomer 1]",185
12,"Cn1cc(-c2cnc(NC(=O)C(NCCc3ccc(C#N)cc3)c3ccccc3)c(Cl)c2)cn1 (single isomer, unassigned) [43 Isomer 2]",> 5000
13,"CC(CNC(C(=O)Nc1ccc(-c2cnn(C(C)(C)C#N)c2)cn1)c1ccccc1)c1ccc(C#N)cc1 (single isomer, unassigned) [47 Isomer 1]",448
14,"CC(CNC(C(=O)Nc1ccc(-c2cnn(C(C)(C)C#N)c2)cn1)c1ccccc1)c1ccc(C#N)cc1 (single isomer, unassigned) [47 Isomer 2]",24.2
15,"CN1CCN(c2ccc(NC(=O)C(NCCc3ccc(C#N)cc3)c3ccccc3)nc2)CC1 (single isomer, unassigned) [49 Isomer 2]",> 5000
16,"N#Cc1ccc(CCNC(C(=O)Nc2ccn(-c3ccccc3)n2)c2ccccc2)cc1 (single isomer, unassigned) [50 Isomer 2]",> 5000

row,SMILES,IC50 [nM]
1,"Cn1cc(-c2ccc(NC(=O)C(NCCc3ccc(C#N)cc3Cl)c3ccccc3)nc2)cn1 (single isomer, unassigned) [51 Isomer 2]",237
2,"CC(CNC(C(=O)Nc1ccc(-c2cnn(C3CCC3)c2)cn1)c1ccccc1)c1ccc(C#N)cc1 (single isomer, unassigned) [52 Isomer 1]",612
3,"CC(CNC(C(=O)Nc1ccc(-c2cnn(C3CCC3)c2)cn1)c1ccccc1)c1ccc(C#N)cc1 (single isomer, unassigned) [52 Isomer 3]",31.1
4,"CC(CNC(C(=O)Nc1ccc(-c2cnn(C(C)(C)C)c2)cn1)c1ccccc1)c1ccc(C#N)cc1 (single isomer, unassigned) [54 Isomer 4]",1970
5,"Cn1cc(-c2ccc(NC(=O)C(NCCc3ccc(C#N)cc3)c3ccccc3)nn2)cn1 (single isomer, unassigned) [57 Isomer 1]",815
6,"Cn1cc(-c2ccc(NC(=O)C(NCCc3ccc(C#N)cc3)c3ccccc3)nn2)cn1 (single isomer, unassigned) [57 Isomer 2]",> 5000
7,"Cn1cc(-c2ccc(NC(=O)C(NCCc3ccc(F)cc3)c3ccccc3)nc2)cn1 (single isomer, unassigned) [58 Isomer 2]",> 5000
8,"CC(CNC(C(=O)Nc1ccc(-n2cnc(C(C)(C)C)c2)cn1)c1ccccc1)c1ccc(C#N)cc1 (single isomer, unassigned) [59 Isomer 1]",1500
9,"CC(CNC(C(=O)Nc1ccc(-n2cnc(C(C)(C)C)c2)cn1)c1ccccc1)c1ccc(C#N)cc1 (single isomer, unassigned) [59 Isomer 2]",> 2000
10,"CC(CNC(C(=O)Nc1ccc(-n2cnc(C(C)(C)C)c2)cn1)c1ccccc1)c1ccc(C#N)cc1 (single isomer, unassigned) [59 Isomer 3]",> 2000
11,"CC(CNC(C(=O)Nc1ccc(-n2cnc(C(C)(C)C)c2)cn1)c1ccccc1)c1ccc(C#N)cc1 (single isomer, unassigned) [59 Isomer 4]",39.3
12,"Cc1nnc2n1CCN(c1ccc(NC(=O)C(NCCc3ccc(C#N)cc3)c3ccccc3)nc1)C2 (single isomer, unassigned) [60 Isomer 1]",32.5
13,"CCN(CC)C(=O)C1CCN(c2ccc(NC(=O)C(NCCc3ccc(C#N)cc3)c3ccccc3)nc2)CC1 (single isomer, unassigned) [64 Isomer 2]",568
14,"CC1(C)CCN(c2ccc(NC(=O)C(NCCc3ccc(C#N)cc3)c3ccccc3)nc2)CC1 (single isomer, unassigned) [65 Isomer 1]",477
15,"COC1CCN(c2ccc(NC(=O)C(NCCc3ccc(C#N)cc3)c3ccccc3)nc2)CC1 (single isomer, unassigned) [66 Isomer 1]",144

# Results, then the compound that gave them:
row,IC50 [nM],SMILES
1,3270,"CN1CCN(c2ccc(NC(=O)C(NCCc3ccc(C#N)cc3)c3ccccc3)cn2)CC1 (single isomer, unassigned) [36 Isomer 1]"
2,3730,"N#Cc1ccc(CCNC(C(=O)Nc2ccc(N3CCCC3)cn2)c2ccccc2)cc1 (single isomer, unassigned) [37 Isomer 2]"
3,> 2000,"Cc1nc(NC(=O)C(NCC(C)c2ccc(C#N)cc2)c2ccccc2)ccc1-c1cnn(C)c1 (single isomer, unassigned) [39 Isomer 1]"
4,17.7,"Cc1nc(NC(=O)C(NCC(C)c2ccc(C#N)cc2)c2ccccc2)ccc1-c1cnn(C)c1 (single isomer, unassigned) [39 Isomer 3]"
5,304,"Cc1nc(NC(=O)C(NCC(C)c2ccc(C#N)cc2)c2ccccc2)ccc1-c1cnn(C)c1 (single isomer, unassigned) [39 Isomer 4]"
6,190,"N#Cc1ccc(CCNC(C(=O)Nc2ccc(N3CCN(CC(F)(F)F)CC3)cn2)c2ccccc2)cc1 (single isomer, unassigned) [40 Isomer 1]"
7,10.3,"Cc1cc(C#N)ccc1CCNC(C(=O)Nc1ccc(-c2cnn(C)c2)cn1)c1ccccc1 (single isomer, unassigned) [41 Isomer 1]"
8,> 5000,"N#Cc1ccc(CCNC(C(=O)Nc2ccc(C3CCC3)cn2)c2ccccc2)cc1 (single isomer, unassigned) [46 Isomer 1]"
9,486,"N#Cc1ccc(CCNC(C(=O)Nc2ccc(C3CCC3)cn2)c2ccccc2)cc1 (single isomer, unassigned) [46 Isomer 2]"
10,> 2000,"CC(CNC(C(=O)Nc1ccc(-c2cnn(C(C)(C)C#N)c2)cn1)c1ccccc1)c1ccc(C#N)cc1 (single isomer, unassigned) [47 Isomer 3]"
11,425,"CC(CNC(C(=O)Nc1ccc(-c2cnn(C(C)(C)C#N)c2)cn1)c1ccccc1)c1ccc(C#N)cc1 (single isomer, unassigned) [47 Isomer 4]"
12,279,"N#Cc1ccc(CCNC(C(=O)Nc2ccn(-c3ccccc3)n2)c2ccccc2)cc1 (single isomer, unassigned) [50 Isomer 1]"
13,> 2000,"CC(CNC(C(=O)Nc1ccc(-c2cnn(C3CCC3)c2)cn1)c1ccccc1)c1ccc(C#N)cc1 (single isomer, unassigned) [52 Isomer 2]"
14,> 2000,"CC(CNC(C(=O)Nc1ccc(-c2cnn(C3CCC3)c2)cn1)c1ccccc1)c1ccc(C#N)cc1 (single isomer, unassigned) [52 Isomer 4]"
15,383,"CC(CNC(C(=O)Nc1ccc(-c2cnn(C(C)(C)C)c2)cn1)c1ccccc1)c1ccc(C#N)cc1 (single isomer, unassigned) [54 Isomer 1]"
16,23.9,"CC(CNC(C(=O)Nc1ccc(-c2cnn(C(C)(C)C)c2)cn1)c1ccccc1)c1ccc(C#N)cc1 (single isomer, unassigned) [54 Isomer 2]"
17,> 2000,"CC(CNC(C(=O)Nc1ccc(-c2cnn(C(C)(C)C)c2)cn1)c1ccccc1)c1ccc(C#N)cc1 (single isomer, unassigned) [54 Isomer 3]"
18,> 5000,"Cn1cc(-c2ccc(NC(=O)C(NCCc3ccc(Cl)cc3)c3ccccc3)nc2)cn1 (single isomer, unassigned) [55 Isomer 2]"
19,> 5000,"Cn1cc(-c2cnc(NC(=O)C(NCCc3ccc(C#N)cc3)c3ccccc3)cn2)cn1 (single isomer, unassigned) [56 Isomer 2]"
20,> 2000,"Cc1nnc2n1CCN(c1ccc(NC(=O)C(NCCc3ccc(C#N)cc3)c3ccccc3)nc1)C2 (single isomer, unassigned) [60 Isomer 2]"
21,86,"COc1ccc(C(NCCc2ccc(C#N)cc2)C(=O)Nc2ccc(-c3cnn(C)c3)cn2)cc1 (single isomer, unassigned) [63 Isomer 1]"
22,> 2000,"COc1ccc(C(NCCc2ccc(C#N)cc2)C(=O)Nc2ccc(-c3cnn(C)c3)cn2)cc1 (single isomer, unassigned) [63 Isomer 2]"
23,> 2000,"CCN(CC)C(=O)C1CCN(c2ccc(NC(=O)C(NCCc3ccc(C#N)cc3)c3ccccc3)nc2)CC1 (single isomer, unassigned) [64 Isomer 1]"
24,> 5000,"CC1(C)CCN(c2ccc(NC(=O)C(NCCc3ccc(C#N)cc3)c3ccccc3)nc2)CC1 (single isomer, unassigned) [65 Isomer 2]"
25,> 5000,"COC1CCN(c2ccc(NC(=O)C(NCCc3ccc(C#N)cc3)c3ccccc3)nc2)CC1 (single isomer, unassigned) [66 Isomer 2]"
